From publication PMC4403932 (Journal of Medicinal Chemistry, 2015) come the findings set out here.

The term Kd denotes the free concentration of one partner at which half of the binding sites on the other are occupied at equilibrium, for simple one-to-one binding.

Like-named read-outs stand apart in the source and are kept apart here.

Format in all cases: binding
In one assay the target is T1, BAZ2B (Homo sapiens, UniProt Q9UIF8).
T1 construct: representative BRDs from other structural subfamilies (family I, PCAF); family III, CREBBP; family IV, BRD9; family V, BAZ2B; made in house
T1 sequence (Q9UIF8 2060-2164 limits assumed): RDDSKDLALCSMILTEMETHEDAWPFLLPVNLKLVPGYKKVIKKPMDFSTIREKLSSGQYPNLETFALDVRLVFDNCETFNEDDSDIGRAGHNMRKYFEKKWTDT
Briefly: Protein stability (thermal) shift assay, BAZ2B. Conditions: compound 10 μM, protein 2 μM; average of triplicate; read-out: ΔTm Shift, BAZ2BA.

In another assay the target is T2, BRD4(2) (Homo sapiens, UniProt O60885).
T2 construct: made in house
As to the kind of experiment: Protein stability (thermal) shift assay, BRD4(2). To be noted: compound 10 μM, protein 2 μM; average of triplicate.

In another assay the target is T3, BRD3(1) (Homo sapiens, UniProt Q15059).
T3 construct: Fragments were tested in a thermal shift assay against bromodomains of the BET subfamily; made in house
As to the kind of experiment: Protein stability (thermal) shift assay, BRD3(1). To be noted: compound 10 μM, protein 2 μM; average of triplicate.

The target in assay [1] is T4, BRD9 (Homo sapiens, UniProt Q9H8M2).
T4 construct: made in house
T4 sequence (Q9H8M2 136-240 limits assumed): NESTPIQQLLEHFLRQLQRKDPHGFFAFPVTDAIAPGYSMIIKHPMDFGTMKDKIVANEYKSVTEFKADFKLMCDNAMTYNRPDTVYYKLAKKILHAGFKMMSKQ
As to the kind of experiment: Protein stability (thermal) shift assay, BRD9.

Assay [2] has as its target T4, BRD9. Briefly: Isothermal titration calorimetry, BRD9. Conditions: for Kd: 50 mM HEPES pH 7.5, 150 mM NaCl, triplicate, read-out: KD; for Kd / N (stoichiometry) / ΔHobs: reverse titration; for LE (ligand efficiency): LE = ΔG/N, N number of non-hydrogen atoms. (Isothermal titration calorimetry measures the heat released or taken up as one component is titrated into another.)

A further assay concerns the target T5, PCAF (Homo sapiens, UniProt Q92831).
T5 construct: representative BRDs from other structural subfamilies (family I, PCAF); made in house
T5 sequence (Q92831 723-827 limits assumed): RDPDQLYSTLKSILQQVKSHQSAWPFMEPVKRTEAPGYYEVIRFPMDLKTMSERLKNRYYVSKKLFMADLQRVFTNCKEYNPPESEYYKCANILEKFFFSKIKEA
Briefly: Protein stability (thermal) shift assay, PCAF. To be noted: compound 10 μM, protein 2 μM; average of triplicate.

The target in a further assay is T6, BRD4(1) (Homo sapiens, UniProt O60885).
T6 construct: made in house
Briefly: Protein stability (thermal) shift assay, BRD4(1).

A further assay concerns the target T7, BRD2(1) (Homo sapiens, UniProt P25440).
T7 construct: Fragments were tested in a thermal shift assay against bromodomains of the BET subfamily; made in house
As to the kind of experiment: Isothermal titration calorimetry, BRD2(1). Conditions: for Kd / TΔS / ΔG / N (stoichiometry) / ΔHobs: ITC, 15 °C; for Kd: 50 mM HEPES pH 7.5, 150 mM NaCl, triplicate; for Kd / N (stoichiometry) / ΔHobs: reverse titration; for LE (ligand efficiency): LE = ΔG/N, N number of non-hydrogen atoms. Here is the method: Experiments were carried out on an ITC200 titration microcalorimeter from MicroCal, LLC (GE Healthcare) equipped with a Washing module, with a cell volume of 0.2003 mL, and a 40 μL microsyringe. Experiments were carried out at 15 °C while stirring at 1000 rpm, in ITC buffer (50 mM HEPES, pH 7.5 (at 25 °C), 150 mM NaCl). The microsyringe was loaded with a solution of the protein sample (300−740 μM protein for BRD9 and BRD4(1), respectively, in ITC buffer) and was carefully inserted into the calorimetric cell which was filled with an amount of the ligand (0.2 mL, 20–25 μM in ITC buffer). The system was first allowed to equilibrate until the cell temperature reached 15 °C, and an additional delay of 60 s was applied. All titrations were conducted using an initial control injection of 0.3 μL followed by 38 identical injections of 1 μL with a duration of 2 s (per injection) and a spacing of 120 s between injections. The titration experiments were designed in such a fashion as to ensure complete saturation of the proteins before the final injection. The heat of dilution for the proteins was independent of their concentration and corresponded to the heat observed from the last injection, following saturation of ligand binding, thus facilitating the estimation of the baseline of each titration from the last injection. The collected data were corrected for protein heats of dilution (measured on separate experiments by titrating the proteins into ITC buffer) and deconvoluted using the MicroCal Origin software supplied with the instrument to yield enthalpies of binding (ΔH) and binding constants (KB) in the same fashion as that previously described in detail by Wiseman and co-workers.[66] Thermodynamic parameters were calculated using the basic equation of thermodynamics (ΔG = ΔH – TΔS = −RT ln KB, where ΔG, ΔH, and ΔS are the changes in free energy, enthalpy, and entropy of binding, respectively). In all cases a single binding site model was employed, supplied with the MicroCal Origin software package.

[3] abbreviates: thermal shift, 10 μM compound, 2 μM protein, read-out: ΔTm.

T7 sequence (P25440 74-180 limits assumed): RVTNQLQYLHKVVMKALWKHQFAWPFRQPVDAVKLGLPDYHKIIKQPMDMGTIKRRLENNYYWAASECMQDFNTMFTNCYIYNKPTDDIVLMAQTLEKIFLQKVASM
T3 sequence (Q15059 34-140 limits assumed): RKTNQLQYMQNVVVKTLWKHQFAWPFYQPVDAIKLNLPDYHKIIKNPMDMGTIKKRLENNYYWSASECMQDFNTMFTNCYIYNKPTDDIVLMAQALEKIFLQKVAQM

In the case of `Nc1nc(-c2cc(Br)cc3c2OCC3)c2nc[nH]c2n1` [Compound 11, 2-Amino-6-(5-bromo-2,3-dihydrobenzo[b]furan-7-yl)-9H-purine], the ΔTm at 10 µM at BAZ2B came to 0.37 °C; on BRD4(2), 2.8 °C; on BRD3(1), 3.7 °C; at BRD9 [1] (setting [3]), 6.5 °C; at PCAF, 0.9 °C; at BRD4(1) (compound 10 μM, protein 2 μM, average of triplicate, read-out: ΔTm Shift, BRD4(1)), 5.3 °C. Further, the Kd on BRD9 [2] (ITC, 15 °C) came out at 278 ± 15 nM; at BRD2(1) it was 1420 ± 60 nM. The TΔS result is given as “–1.63 kcal/mol” on BRD9 [2] (ITC, 15 °C) and 2.06 kcal/mol on BRD2(1). Moreover, the ΔG result on BRD9 [2] (ITC, 15 °C) is “–8.65 kcal/mol”; on BRD2(1) it was “–7.71 kcal/mol”. Besides, the “N (stoichiometry)” value at BRD9 [2] (ITC, 15 °C) was 1.03 ± 0.003; on BRD2(1), 1.02 ± 0.006. For the same compound, the ΔHobs entry at BRD9 [2] (ITC, 15 °C) is recorded as “–10.28 ± 0.04 kcal/mol”; at BRD2(1), “–5.65 ± 0.04 kcal/mol”. Besides, the entries for the “LE (ligand efficiency)” value at BRD9 [2] and on BRD2(1) were 0.43 and 0.39, respectively.

Take `COc1ccc(Br)cc1-c1nc(N)nc2[nH]cnc12` [Compound 7d, 2-Amino-6-(5-bromo-2-methoxyphenyl)-9H-purine]: the ΔTm at 10 µM was 0.237 °C at BAZ2B; 0.6 °C at BRD4(2); 2.1 °C on BRD3(1); 3.6 °C at BRD9 [1] (compound 10 μM, protein 2 μM, average of triplicate, read-out: ΔTm Shift, BRD9); -0.45 °C at PCAF; 3.2 °C at BRD4(1) (setting [3]). For the same compound, the Kd at BRD9 [2] (ITC, 15 °C) was 397 ± 19 nM; at BRD2(1), 4440 ± 162 nM. Moreover, the ΔG result on BRD9 [2] (ITC, 15 °C) is listed as “–8.45 kcal/mol”; on BRD2(1), “–7.06 kcal/mol”. In addition, the “N (stoichiometry)” value at BRD9 [2] (ITC, 15 °C) amounted to 0.97 ± 0.005; at BRD2(1) it was 0.99 ± 0.011. In addition, the ΔHobs entry on BRD9 [2] (ITC, 15 °C) was “–9.63 ± 0.06 kcal/mol”; at BRD2(1), “–6.62 ± 0.09 kcal/mol”. The “LE (ligand efficiency)” value at BRD9 [2] turned out to be 0.44; at BRD2(1), 0.37. The TΔS at BRD2(1) is 0.44 kcal/mol.
